# Source: US11214803B2, “Modulators of YAP1 expression” (Ionis Pharmaceuticals, Inc., priority 2019, dated 2022)
# Marks after values point to notes of the source that are not given here. Strand notation (5' to 3'): a small letter for the sugar, then the base; units joined by * are phosphorothioate-linked, units joined directly phosphodiester-linked; [ ] holds rarer units or linkages, { } end groups; capitals alone tell only the bases. k = constrained ethyl (cEt); [5mC] = 5-methylcytosine; d = 2'-deoxy (DNA)
# System: Yap1 mRNA
# Assay: Antisense inhibition of human Yap1 in A-431 cells by cEt gapmers, single dose (Example 4, RTS4814)
# Type: cell-based
# Settings: Table 14; A-431 cells, 5,000 cells per well, free uptake, 2,000 nM, approximately 48 hours; RTS4814; normalized to RIBOGREEN; Yap1 mRNA relative to untreated control; * = targets amplicon region of primer probe set
# In short: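 A-431 cells took up 3-10-3 cEt gapmers (16-mer, full phosphorothioate, 5-methylcytosines) by free uptake at 2,000 nM for about 48 h. Yap1 mRNA was quantified by qRT-PCR, normalized to total RNA (RIBOGREEN), and reported as % of untreated control.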
row,Substance,YAP1 (% UTC)
1,1075712 (kG*kA*k[5mC]*dG*d[5mC]*dG*dA*dA*dA*dT*dA*d[5mC]*dT*kT*kA*k[5mC]; antisense) [Compound 1075712],7
2,1075872 (k[5mC]*kA*kA*dT*dT*dA*dT*dG*dA*d[5mC]*dA*dA*dA*k[5mC]*kA*kG; antisense) [Compound 1075872],21
3,1075680 (kA*kT*kT*dA*dT*dT*dA*d[5mC]*d[5mC]*d[5mC]*d[5mC]*dT*dT*k[5mC]*kT*kA; antisense) [Compound 1075680],73
4,1074688 (antisense kT*k[5mC]*k[5mC]*d[5mC]*d[5mC]*d[5mC]*dT*dA*dA*dG*d[5mC]*dT*dA*kA*kA*kG) [Compound 1074688],83
5,1076448 (k[5mC]*kT*kT*dA*dT*dA*dA*dT*dG*d[5mC]*dA*dA*dT*k[5mC]*k[5mC]*kT; antisense) [Compound 1076448],2
6,1075648 (kT*k[5mC]*kA*dA*dT*dA*dA*dA*dG*dT*dG*dG*dG*kA*k[5mC]*kT; antisense) [Compound 1075648],67
7,1075744 (kT*kT*k[5mC]*dG*dG*dG*dT*dT*dA*dG*d[5mC]*dA*dG*kA*k[5mC]*kT; antisense) [Compound 1075744],6
8,1075200 (antisense k[5mC]*kA*kT*dA*dT*dT*dA*dA*d[5mC]*dT*dA*dG*dA*kT*kG*kA) [Compound 1075200],120
9,1074528 (k[5mC]*kT*kG*d[5mC]*d[5mC]*d[5mC]*d[5mC]*dA*dA*d[5mC]*d[5mC]*dA*dG*kA*kT*kT; antisense) [Compound 1074528],25
10,1075264 (antisense kG*kA*kA*dT*dA*dA*dT*dA*dT*dG*d[5mC]*dA*dG*kA*kA*k[5mC]) [Compound 1075264],53

# Same assay, conditions: Table 15; A-431 cells, 5,000 cells per well, free uptake, 2,000 nM, approximately 48 hours; RTS4814; normalized to RIBOGREEN; Yap1 mRNA relative to untreated control; * = targets amplicon region of primer probe set
row,Substance,YAP1 (% UTC)
1,1074113 (k[5mC]*kT*k[5mC]*d[5mC]*dA*dA*d[5mC]*dT*d[5mC]*d[5mC]*d[5mC]*dT*dT*kG*kA*k[5mC]; antisense) [Compound 1074113],61
2,1076417 (k[5mC]*kT*kT*dT*dA*d[5mC]*dA*d[5mC]*d[5mC]*dG*dA*dA*dA*kT*kG*kA; antisense) [Compound 1076417],42
3,1075265 (antisense kT*k[5mC]*kT*dG*dA*dA*dT*dA*dA*dT*dA*dT*dG*k[5mC]*kA*kG) [Compound 1075265],44
4,1075073 (antisense k[5mC]*kA*kT*dA*dA*dA*dA*dG*dT*dT*d[5mC]*d[5mC]*d[5mC]*k[5mC]*kA*kG) [Compound 1075073],51
5,1076161 (kT*k[5mC]*kT*dT*dA*dT*dA*d[5mC]*dT*dA*dG*dT*dA*k[5mC]*kG*kG; antisense) [Compound 1076161],14
6,1076449 (k[5mC]*k[5mC]*kT*dT*dA*dT*dA*dA*dT*dG*d[5mC]*dA*dA*kT*k[5mC]*k[5mC]; antisense) [Compound 1076449],2
7,1075105 (antisense kA*kA*kT*dT*dA*dT*dA*dA*dG*dG*dT*d[5mC]*d[5mC]*kT*kA*k[5mC]) [Compound 1075105],42
8,1075617 (kT*kA*kA*dG*dA*dA*d[5mC]*dG*dA*d[5mC]*dA*dT*dA*kT*kG*k[5mC]; antisense) [Compound 1075617],27

# Same assay, conditions: Table 16; A-431 cells, 5,000 cells per well, free uptake, 2,000 nM, approximately 48 hours; RTS4814; normalized to RIBOGREEN; Yap1 mRNA relative to untreated control cells
row,Substance,YAP1 (% UTC)
1,1074658 (antisense kG*kG*k[5mC]*d[5mC]*dA*dT*dT*dT*d[5mC]*d[5mC]*d[5mC]*d[5mC]*d[5mC]*k[5mC]*kA*kG) [Compound 1074658],89 % UTC
2,1074338 (antisense kG*kG*kA*dT*dT*dT*dT*dG*dA*dG*dT*d[5mC]*d[5mC]*k[5mC]*kA*k[5mC]) [Compound 1074338],77 % UTC
3,1075586 (kT*kA*kT*dT*dA*dG*d[5mC]*dA*d[5mC]*d[5mC]*dT*dG*dG*kG*kT*kA; antisense) [Compound 1075586],64 % UTC
4,1076546 (antisense k[5mC]*k[5mC]*k[5mC]*d[5mC]*dA*dA*d[5mC]*d[5mC]*dT*dG*dA*dG*dG*kA*kG*k[5mC]) [Compound 1076546],94 % UTC
5,1074434 (antisense kA*k[5mC]*kT*dT*d[5mC]*dT*dA*dA*dG*dT*d[5mC]*dT*dG*kA*kG*kT) [Compound 1074434],51* % UTC

# Same assay, conditions: Table 17; A-431 cells, 5,000 cells per well, free uptake, 2,000 nM, approximately 48 hours; RTS4814; normalized to RIBOGREEN; Yap1 mRNA relative to untreated control cells
row,Substance,YAP1 (% UTC)
1,1076451 (k[5mC]*k[5mC]*kT*dT*dA*dA*dG*dA*dA*d[5mC]*dA*dT*dG*kA*kG*kG; antisense) [Compound 1076451],77
2,1075779 (kG*kT*kA*dT*dT*dA*d[5mC]*dA*dA*dA*d[5mC]*dT*dG*kA*kT*kT; antisense) [Compound 1075779],28
3,1074339 (antisense kA*k[5mC]*kT*dG*dG*dA*dT*dT*dT*dT*dG*dA*dG*kT*k[5mC]*k[5mC]) [Compound 1074339],31
4,1074787 (k[5mC]*kA*kA*d[5mC]*d[5mC]*dA*dT*dA*dA*dG*dT*dA*dG*kA*kT*k[5mC]; antisense) [Compound 1074787],13
5,1075267 (antisense k[5mC]*kT*kA*dT*dT*dT*dA*dG*dA*dA*dT*dA*dA*kG*kT*kG) [Compound 1075267],83
6,1074467 (k[5mC]*kA*k[5mC]*d[5mC]*dG*dA*d[5mC]*d[5mC]*d[5mC]*dT*dG*d[5mC]*d[5mC]*kA*kA*kA; antisense) [Compound 1074467],31
7,1075171 (antisense k[5mC]*k[5mC]*k[5mC]*d[5mC]*dA*dA*dT*dA*dT*dA*dA*dA*dG*kA*kA*k[5mC]) [Compound 1075171],88
8,1075459 (antisense kA*kA*k[5mC]*d[5mC]*dA*dA*dG*dG*dA*dT*dA*dG*dT*k[5mC]*kA*kT) [Compound 1075459],37
9,1074563 (antisense kT*kG*kA*dA*dT*dT*d[5mC]*d[5mC]*dA*dA*dT*d[5mC]*dG*kA*kG*kA) [Compound 1074563],4
10,1076227 (kA*k[5mC]*kT*dT*dA*dT*dA*dA*dG*dG*d[5mC]*d[5mC]*dA*kG*k[5mC]*kA; antisense) [Compound 1076227],16

# Same assay, conditions: Yap1 mRNA remaining as percent of untreated control; 3-10-3 cEt gapmers; A-431 cells; Table 36
row,Substance,YAP1 (% UTC)
1,1074838 (kA*kT*kA*dA*d[5mC]*dA*dA*d[5mC]*dA*dT*dG*d[5mC]*dT*kT*kG*k[5mC]; antisense) [compound 1074838],9
2,1074198 (antisense kT*kT*kG*d[5mC]*d[5mC]*d[5mC]*dG*dG*dG*dT*d[5mC]*d[5mC]*dG*kG*kA*k[5mC]) [compound 1074198],112
3,1075702 (kG*kA*kG*dG*dA*dA*dG*dG*dG*d[5mC]*dA*d[5mC]*d[5mC]*kT*kT*kT; antisense) [compound 1075702],81
4,1075350 (antisense kG*kA*kT*dT*dA*dA*dA*dG*d[5mC]*dT*d[5mC]*dA*dT*kT*kG*kA) [compound 1075350],62
5,1076118 (k[5mC]*kG*kT*dA*dA*dA*dT*dT*dG*dA*dG*dG*d[5mC]*k[5mC]*k[5mC]*kA; antisense) [compound 1076118],45

# Same assay, conditions: Yap1 mRNA remaining as percent of untreated control; 3-10-3 cEt gapmers; A-431 cells; Table 37
row,Substance,YAP1 (% UTC)
1,1075319 (antisense kT*kA*kT*dA*dA*d[5mC]*dA*dA*dT*d[5mC]*dA*dT*d[5mC]*k[5mC]*kT*kA) [compound 1075319],59
2,1076503 (kA*kA*kT*dT*dA*d[5mC]*d[5mC]*d[5mC]*d[5mC]*dT*dG*dT*dG*kA*kG*kG; antisense) [compound 1076503],77
3,1075223 (kG*kT*kT*dA*dA*dA*dA*dG*dT*dG*dA*dA*d[5mC]*k[5mC]*k[5mC]*kA; antisense) [compound 1075223],19
4,1075415 (antisense k[5mC]*kA*kT*dT*dA*dA*dA*dT*dG*dA*d[5mC]*dA*dG*k[5mC]*k[5mC]*kT) [compound 1075415],52
5,1074807 (k[5mC]*k[5mC]*kA*dT*dA*dT*dA*dG*dA*dA*dG*dG*d[5mC]*kA*kT*kG; antisense) [compound 1074807],75
6,1074359 (antisense kT*kT*k[5mC]*dG*dA*dG*dG*dG*dA*d[5mC]*dA*d[5mC]*dT*kG*kT*kA) [compound 1074359],18
7,1074263 (antisense kA*kG*k[5mC]*d[5mC]*dG*dA*dG*dT*dT*d[5mC]*dA*dT*d[5mC]*kA*kT*kA) [compound 1074263],34
8,1076055 (kA*kA*kT*dT*dA*d[5mC]*dT*dA*dA*d[5mC]*dA*dA*dT*k[5mC]*kT*k[5mC]; antisense) [compound 1076055],45
9,1075255 (kA*kA*kA*dT*dA*dT*d[5mC]*d[5mC]*dG*dT*dG*dT*d[5mC]*k[5mC]*kT*k[5mC]; antisense) [compound 1075255],16
10,1075927 (antisense kG*k[5mC]*kT*dT*dA*dA*dA*dA*dT*d[5mC]*dA*dT*dG*kT*kA*kG) [compound 1075927],32
11,1074999 (antisense kA*kA*k[5mC]*d[5mC]*dA*dA*d[5mC]*dA*d[5mC]*dG*d[5mC]*dG*dA*k[5mC]*k[5mC]*kT) [compound 1074999],77
